What was measured:
tumor microspheres = test: Generation of tumor microspheres by tumor cells (HeLa, Caski, Hep3B, Huh7); format: cell-based, human; settings: 1 or 10 μM, 48 hours, FIG. 5
Protocol: (§1) • 1) Cell sources: cervical cancer cells HeLa and Caski, liver cancer cells Hep3B and Huh7 were all purchased from the Chinese Academy of Sciences cell bank (Shanghai). • 2) Tumor microsphere culture: The specific culture method for tumor microspheres can be found in the literature (Cheng J et al. Tryptophan derivatives regulate the transfer of Oct4 in stem-like cancer cells. Nat Commun. 2015, 6:7209). Each tumor cell was cultured separately in a medium containing 2% B27, 10 ng/ml BFGF, 5 ng/ml EGF, and 10 ng/ml LIF to form CSC rich tumor microspheres. • 3) Cell dosing treatment: HeLa cell lines and Huh7 cell lines were inoculated in a 6-well plate containing the aforementioned culture medium at a density of 200 cells per well, while Hep3B cell lines and Caski cell lines were inoculated in a 6-well plate containing the aforementioned culture medium at a density of 2000 cells per well. KZT-A5 or AH057 at concentrations of 1 μM or 10 μM was added, and the morphology of tumor microspheres was observed, photographed and recorded after 48 hours of treatment.

HeLa cells [1] = test: Tumor microspheres cultured in HeLa cells; format: cell-based, human; settings: 10 μM, 48 hours
Protocol: as §1

[2] = system: HepG2 (human liver cancer cells); test: In vitro proliferation inhibition (CCK-8), HepG2; format: cell-based; settings: for IC50: Homo sapiens
Excerpt: • 1) Cell sources: HeLa (human cervical cancer cells), CaSki (human cervical cancer intestinal metastasis cells), Huh7 (human liver cancer cells), HepG2 (human liver cancer cells), Hep3B (human liver cancer cells) were purchased from the Chinese Academy of Sciences cell bank (Shanghai); LO2 (human normal liver cells) and HcerEpic (human normal uterine epithelial cells) were from ATCC. • 2) Cell culture and passage: The cell culture and passage method is the same as that described in “The inhibitory effect of compounds on the OCT4 protein in tumor stem cells (CSC)”. • 3) Cell dosing treatment: The each type of cells mentioned above was digested, counted, and inoculated in each well of the 96 well cell culture plate (#3988, Corning) at a density of 5000 cells/200 μl culture medium. They were cultured in a cell culture incubator at 37° C. and 5% CO2 for 24 hours to allow the cells to fully adherent to the wall. Then, the original culture medium was replaced with complete culture medium containing gradient diluted KZT-A5 (each concentration with 3 repeated wells) as well as DMSO (#D5879, Sigma Aldrich) solvent control, and they are cultured for additional 72 hours. • 4) Pharmacodynamic test and statistics: First, the morphology of cells treated with the above compounds was observed, photographed and recorded using an inverted phase contrast microscope (X71, Olympus). Then the original culture medium was replaced with phenol red free culture medium containing CCK-8 detection reagent (#E606335, Shanghai Shenggong) respectively, and they are cultured in the incubator for additional 2 hours. Then the OD450 nm absorbance value (OD value) was measured on a multifunctional enzyme-linked immunosorbent assay (168-1130, Bio Rad). After the cells were treated with the test compound, the equations for calculating the cell survival rate or cell growth rate is: survival rate=GD value of the treated group/OD value of the control group×100%; the equations for calculating the growth inhibition rate of compounds on cell proliferation is: inhibition rate=(OD value of control group−OD value of the treated group)/OD value of control group×100%. Further, the IC50 of each compound was calculated in SPSS based on the inhibition rate. […]

HeLa cells [3] = test: Clone formation of HeLa cells, single drugs and combination; format: cell-based, human; settings: 700 nM KZT-A5, 100 nM SGI-1027, two weeks, compared with DMSO control, FIG. 7
Excerpt: • 1) Cell source: HeLa cells were purchased from the Chinese Academy of Sciences Cell Bank (Shanghai). • 2) Cell culture and passage: The cell culture and passage method is the same as that described in “Inhibition of OCT4 protein in tumor stem cells (CSCs) by compounds”. • 3) Cell dosing treatment: The cells were inoculated into a 6-well plate containing the aforementioned culture medium at a density of 200 cells per well. They were divided into four groups, and DMSO (as blank control group), 700 nM KZT-A5 (as KZT-A5 single drug group), 100 nM SGI-1027 (as SGI-1027 single drug group), and 700 nM KZT-A5+100 nM SGI-1027 (as combination group) was added respectively. After two weeks, they were photographed, and the number of clones was counted in each group respectively.

## COc1cc(/C=C2\CCc3c([nH]c4ccc(C)cc34)C2=O)ccc1O [KZT-A5]
Tumor microspheres
  inhibition of generation of tumor microspheres: dose-dependently inhibit the generation of tumor microspheres
HeLa cells [1]
  inhibitory effect on tumor microspheres compared with AH057: more significant than that of the control compound AH057
[2]; HepG2, FIG. 6
  inhibitory effect on viability compared with AH057: more significant inhibitory effect
[2]; HepG2, 72 hours, CCK-8, average of three wells in one test
  IC50: 3.13 µM
[2]; HepG2, test (2), average±standard deviation of three wells
  IC50: 3.16 ± 0.08 µM
HeLa cells [3]
  inhibition of clone formation: significantly inhibits clone formation

Reference: US20250034089A1, “TETRAHYDROCARBAZOLE COMPOUND, AND PHARMACEUTICAL COMPOSITION AND USE THEREOF” (NAIN BIOTECH (HANGZHOU) CO., LTD., priority 2021, published 2025)
